According to article PMC6874057, “Synthesis of Chalcone Derivatives: Inducing Apoptosis of HepG2 Cells via Regulating Reactive Oxygen Species and Mitochondrial Pathway” (Frontiers in Pharmacology, 2019):

Tests used:
[1] = system: HepG2; assay: MTT cell viability assay, HepG2; format: cell-based, human; settings: Homo sapiens, HepG2, 48 h, mean ± SE
Procedure: (§1) HeLa, A549, HepG2, HL-60, and WI-38 cell lines were incubated in DMEM solution containing 10% FBS for 48 h. The incubated tumor cells were seeded into 96-well plates (5 × 10^3 cells/well) to make them attach for 12 h. Afterwards, the cells were processed with the various concentrations of the synthetic compounds and 5-FU for 48 h. After removing the cell culture supernatant, 10 µl MTT (5 mg/ml) solution was dripped into the cells to generate a formazan product, which were dissolved by dimethyl sulfoxide (DMSO) 4 h later. Multifunction microplate reader (Bio-Rad Laboratories, Shanghai, China) was adopted to measure the absorbance at the wave length of 490 nm. The IC50 (the lowest drug concentration causing 50% of the tumor cells inhibition) was then calculated using GraphPad Prism Software (version 5.02) and used to indicate the cytotoxic effect of the target compounds on the selected tumor cells.

[2] = system: HepG2 cells; assay: DAPI staining, morphology of apoptotic cells; format: cell-based, human; settings: various concentrations, 48 h; in words
Procedure: Firstly, HepG2 cells (3 × 10^5 cells/well) were seeded into six-well plates and kept to attach overnight. Then, the cells were incubated with a14 at different concentrations (0, 30, 50, and 70 µM) for 48 h, washed by ice-cold PBS solution and fixed with 4% paraformaldehyde for 10 min at room temperature. The cells was processed by DAPI (10 µg/ml) for 15 min in the dark, and the residual DAPI was rinsed two more times by ice-cold PBS. Then, the cells were transferred on a glass slide, fixed with a coverslip and placed under a fluorescence microscope (Motic China Group Co., Ltd., Shenzhen, China) to be observed and photographed at an excitation wavelength of 480/30× nm and the emission wavelength of 515 nm. Condensation of chromatin and fragmentation of nuclei could be applied to determine the apoptotic cells.

[3] = system: Caspase 3 in HepG2 cells; assay: Western blot, Caspase 3; format: cell-based, human; settings: 48 h, compared to the control group; in words
Procedure: (§2) HepG2 cells (3 × 10^5 cells/well) were seeded into a six-well plate overnight for adherence, and then treated with a14 (0, 30, 40, 50, 60, and 70 µM) for 48 h. After the cells were collected by centrifugation, they were lysed with the radio immunoprecipitation assay (RIPA) buffer (high) containing 50 mM Tris (pH = 7.4), 150 mM NaCl, 1% TritonX-100, 1% sodium deoxycholate, 0.1% sodium dodecyl sulfate (SDS), 2 mM sodium pyrophosphate, 25 mM β-glycerophosphate, 1 mM ethylenediaminetetraacetic acid (EDTA), 1 mM Na3VO4, and 0.5 ug/ml leupeptin (Beijing Solarbio Science & Technology Co., Ltd.).The extract was then centrifuged at 12,000 rpm for 30 min and the total protein concentration was quantified using the BCA kit (Beijing Solarbio Science & Technology Co., Ltd.). The protein extracts were mixed with the SDS-PAGE protein loading buffer (Beijing Solarbio Science & Technology Co., Ltd.) and then boiled in 100°C water bath for 10 min. The gel was gelatinized using an SDS Gel Kit (Beijing Solarbio Science & Technology Co., Ltd.) and protein extracts were separated by protein SDS-polyacrylamide gel electrophoresis and transferred to Immobilon-NC Membrane (Beijing Solarbio Science & Technology Co., Ltd.). […]

[4] = system: ROS level in HepG2 cells; assay: ROS level by DCFH-DA probe, flow cytometry; format: cell-based, human; settings: a14 50 µM, 8 h (0 h: 4351.6)
Procedure: HepG2 cells were seeded into six-well plates (3 × 10^5 cells/well) overnight to make the cells grow adherently and then incubated with a14 (50 µM) for 0, 3, 6, 8, 9, and 12 h. After that, the cells were added to 1 ml DCFH-DA (10 µM) and incubated for 30 min in the dark. After the cells were washed twice by the pre-cooled PBS, the cells were trypsinized and collected by centrifugation. The cells of the blank group were implemented the same experimental procedures, except for the process with a14. Besides, 5 mM N-acetyl-L-cysteine (NAC) was applied as anti-oxidative substance to prevent the oxidation of the cells, which could entirely block the production of ROS induced by a14. The generation levels of ROS were evaluated in fluorescence intensity (FL-1, 530 nm) by Beckman Coulter flow cytometer (Beckman Coulter, Inc. California). The data collected was analyzed using the CytExpert 2.0 software embedded in Beckman flow cytometry, and the histogram was plotted by Origin Pro8.

[5] = system: HL-60; assay: MTT cell viability assay, HL-60; format: cell-based, human; settings: Homo sapiens, HL-60, 48 h, mean ± SE
Procedure: as §1

[6] = system: adherent tumor cell lines (HepG2, A549 and Hela); assay: MTT assay, summary over adherent tumor cell lines; format: cell-based; settings: Homo sapiens; span of IC50 over compounds a11-a14 and adherent tumor cell lines; read-out: IC50 range over cell lines
Procedure: as §1

[7] = system: Bax in HepG2 cells; assay: Western blot, Bax; format: cell-based, human; settings: different concentrations, 48 h, dose-dependent; in words
Procedure: as §2

[8] = system: HepG2 cells; assay: Cell cycle arrest by PI staining, flow cytometry; format: cell-based, human; settings: for G2/M: 24 h
Procedure: HepG2 cells were seeded into six-well plates (3 × 10^5/well) overnight to allow the cells to grow adherently and then incubated with a14 at the concentrations of 0, 30, 40, 50, 60 or 70 µM for 24 and 48 h. After the incubation time, the cells were collected by centrifugation (1000 r/min) and fixed overnight with […] ethanol at 4°C, and then the cells were removed and washed three times with ice-cold PBS. Afterwards, the cells were added to RNase A (Beijing Solarbio Science & Technology Co., Ltd.), and incubated for 30 min at 37°C, after which PI (Beijing Solarbio Science & Technology Co., Ltd.) was added. The fluorescence was monitored by a Beckman Coulter flow cytometer (Beckman Coulter, Inc. California). Ten thousand events were collected per sample, and the data were analyzed using Modfit LT 5.0 software.

## COc1cc(/C=C/C(=O)c2ccc(O)c(C(N)=O)c2)cc(OC)c1OC [a14]
[1]
  IC50: 38.3 ± 0.59 µM
[2]
  morphological changes of the nucleus (DAPI): a large number of nuclear condensation and nuclear fragmentation
[3]
  expression level of Caspases 3: decrease
[4]
  intracellular fluorescence intensity (DCFH-DA): 236197.3
[5]
  IC50: 121 ± 3.58 µM
[6]
  IC50: 23.3 to 54.4 µM
[7]
  expression of pro-apoptotic proteins (Bax): up-regulated
[8]; a14 30 µM
  G2/M: 19.07%
[8]; a14 50 µM, 48 h
  increase of percentage of G2/M compared with the untreated group: 73.82%
[8]; a14 70 µM
  G2/M: 79.57%
